“Also recorded” adds a separate entry of the source. Where two headings read alike, the source gives them in different places.
Legend:
LS174T cells = experiment: Cell proliferation assay, LS174T colon cancer cells; format: cell-based
Method: Cell Proliferation Assay.
LS174T cells were grown in RPMI medium (Mediatech) supplemented with 5% fetal bovine serum and 1% penicillin/streptomycin. For cell proliferation assays, 3×10^4 cells/well growing in 12-well plates were treated with DMSO or inhibitors. The cell numbers and viability were analyzed by Vi-Cell Cell Viability Analyzer after 4 days. The IC50 values were calculated with GraphPad Prim 5.

[1] = target: catalytic subunit of methionine S-adenosyltransferase-2 (MAT-2) (Homo sapiens, UniProt P31153); details: cited from earlier work
Sequence of catalytic subunit of methionine S-adenosyltransferase-2 (MAT-2) (P31153 whole entry): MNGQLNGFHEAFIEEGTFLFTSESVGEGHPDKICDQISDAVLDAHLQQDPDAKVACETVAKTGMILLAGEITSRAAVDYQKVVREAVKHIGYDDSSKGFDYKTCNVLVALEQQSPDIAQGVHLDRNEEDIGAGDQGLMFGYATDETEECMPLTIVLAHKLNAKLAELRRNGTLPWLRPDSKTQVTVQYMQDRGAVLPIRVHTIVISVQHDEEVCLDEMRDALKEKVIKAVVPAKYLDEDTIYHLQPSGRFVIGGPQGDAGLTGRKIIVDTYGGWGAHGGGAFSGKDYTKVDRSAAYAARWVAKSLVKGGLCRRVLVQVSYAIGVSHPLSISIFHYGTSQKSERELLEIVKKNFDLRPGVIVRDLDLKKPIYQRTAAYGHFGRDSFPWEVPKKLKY

MAT2 = MAT2 (Homo sapiens, UniProt P31153); experiment: MAT2A inhibition assay; format: biochemical; details: compared with stilbene 1
Sequence of MAT2 (P31153 whole entry): as above
Text: We reported previously that stilbenes repressed colon cancer cell proliferation by inhibiting c-myc expression and inducing the cell cycle inhibitor, p21(Wif1/Cip1). See Zhang et al. J Med Chem 2011: 54:1288-1297. The similarity of the diarylacetylenes to the stilbenes also prompted an in silico modeling study of the binding of (E)-4-(2′,6′-difluorostyryl)-N,N-dimethylaniline (1) and 4((2,6-difluorophenyl)ethynyl)-N,N-dimethylaniline (2m). It was believed that para-oriented amino-substituents, such as the N-methylamino and N,N-dimethylamino groups, were associated with potent MAT2A inhibition. […] Variability in the MAT2A inhibition assay made the measurement of c-myc inhibition a preferred analytical tool for assessing the potency of diarylacetylenes.

[2] = Homo sapiens, LS174T, 96 h, 4 days, read-out: Inhibition of LS174T Cell Proliferation IC50
[3] = 4 days, read-out: Inhibition of LS174T Cell Proliferation IC50

IC50 (LS174T cells; [2]) [nM] | melting point [°C] | SMILES | Potency as inhibitor of LS174T cell proliferation (in words) (LS174T cells) | further results
> 3000 | 104 to 106 | CN(C)c1ccc(C#Cc2ccccc2)cc1 [Compound 2c, N,N-Dimethyl-4-(phenylethynyl)aniline] | very low potency | –
– | 86 to 88 | CN(C)c1ccc(C#Cc2c(F)cccc2Cl)cc1 [Compound 2n, 4-((2-Chloro-6-fluorophenyl)ethynyl)-N,N-dimethylaniline] | – | –
> 3000 | 100 to 101 | CN(C)c1ccc(C#Cc2ccc(F)c(F)c2)cc1 [Compound 2j, 4-((3,4-Difluorophenyl)ethynyl)-N,N-dimethylaniline] | significantly less active | –
55 ± 7.8 | 104 to 105 | Nc1ccc(C#Cc2c(F)cccc2F)cc1 [Compound 2a, 4-((2,6-Difluorophenyl)ethynyl)aniline] | – | IC50 (LS174T cells; Homo sapiens, LS174T, read-out: IC50 (inhibition of LS174T cell proliferation)): 55 ± 7.8 nM
– | 69 to 70 | CNc1ccc(C#Cc2c(F)cccc2F)cc1 [Compound 2b, 4-((2,6-Difluorophenyl)ethynyl)-N-methylaniline] | – | –
56 ± 8.1 | 116 to 118 | CN(C)c1ccc(C#Cc2ccc(F)cc2F)cc1 [Compound 2i, 4-((2,4-Difluorophenyl)ethynyl)-N,N-dimethylaniline] | – | –
59 ± 7.5 | – | CN(C)c1ccc(/C=C/c2c(F)cccc2F)cc1 [Compound 1, (E)-4-(2′,6′-difluorostyryl)-N,N-dimethylaniline, reference compound] | – | Molecular target [1]: targeted exclusively the catalytic subunit of methionine S-adenosyltransferase-2 (MAT-2)
< 50 | 94 to 96 | CN(C)c1ccc(C#Cc2ccccc2F)cc1 [Compound 2d, 4-((2-Fluorophenyl)ethynyl)-N,N-dimethylaniline] | – | IC50 (LS174T cells; [3]): 39 ± 6 nM
55 ± 6 | 106 to 107 | CN(C)c1ccc(C#Cc2cc(F)ccc2F)cc1 [Compound 2l, 4-((2,5-Difluorophenyl)ethynyl)-N,N-dimethylaniline] | – | –
– | – | CN(C)c1ccc(C#Cc2c(F)cccc2F)cc1 [Compound 2m, 4-((2,6-Difluorophenyl)ethynyl)-N,N-dimethylaniline] | – | MAT2 inhibition (in words, data not shown) (MAT2): inhibited MAT2 at concentrations comparable to that of the stilbene 1
> 3000 | 132 to 134 | CN(C)c1ccc(C#Cc2ccc(F)cc2)cc1 [Compound 2g, 4-((4-Fluorophenyl)ethynyl)-N,N-dimethylaniline] | very low potency; also recorded: significantly less active | –
> 3000 | 99 to 100 | CN(C)c1ccc(C#Cc2cccc(F)c2)cc1 [Compound 2f, 4-((3-Fluorophenyl)ethynyl)-N,N-dimethylaniline] | significantly less active | –
> 3000 | 72 to 74 | CN(C)c1ccc(C#Cc2cc(F)cc(F)c2)cc1 [Compound 2k, 4-((3,5-Difluorophenyl)ethynyl)-N,N-dimethylaniline] | significantly less active | –
119 ± 4.6 | 104 to 106 | CN(C)c1ccc(C#Cc2cccc(F)c2F)cc1 [Compound 2h, 4-((2,3-Difluorophenyl)ethynyl)-N,N-dimethylaniline] | – | –
52 ± 7.1 | 96 to 98 | CN(C)c1ccc(C#Cc2c(Cl)cccc2Cl)cc1 [Compound 2o, 4-((2,6-Dichlorophenyl)ethynyl)-N,N-dimethylaniline] | – | –
< 50 | 108 to 110 | CN(C)c1ccc(C#Cc2ccccc2Cl)cc1 [Compound 2e, 4-((2-Chlorophenyl)ethynyl)-N,N-dimethylaniline] | – | IC50 (LS174T cells; [3]): 31 ± 3.1 nM

From patent publication US9895324B2, “Halogenated diarylacetylenes and methods of treating cancer” (UNIVERSITY OF KENTUCKY RESEARCH FOUNDATION, priority 2014, dated 2018)
